Data published in ChEMBL document CHEMBL5543125, “Discovery of 2,3-Dihydro[1,4]dioxino[2,3-g]benzofuran Derivatives as Protease Activated Receptor 4 (PAR4) Antagonists with Potent Antiplatelet Aggregation Activity and Low Bleeding Tendency” (J Med Chem, 2024).
Active and inactive are the calls of the source. No cut-off for these calls is given here.

Experiments:
[1] = Metabolic stability in human liver microsomes assessed as half life at 1 uM preincubated for 1 hr followed by NADPH addition and measured upto 60 mins by LC-MS/MS analysis; type: ADME, Microsome; settings: time < 120 min
Platelet [2] = test: Inhibition of platelet aggregation in human platelet rich plasma at 20 uM preincubated for 5 mins followed by aggregation inducer addition and measured after 5 mins by light transmission aggregometry relative to control; type: functional; settings: 10 min
Platelet [3] = test: Inhibition of platelet aggregation in human platelet rich plasma preincubated for 5 mins followed by aggregation inducer addition and measured after 5 mins by light transmission aggregometry; type: functional, cell-based
[4] = Oral bioavailability in Sprague-Dawley rat at 50 mg/kg; type: ADME, organism-based; settings: in vivo
[5] = target: T1, Proteinase-activated receptor 4 (Homo sapiens) (UniProt Q96RI0); test: Antagonist activity at PAR4 in human filtered plasma assessed as inhibition of PAR4-activated peptide AYPGPK-NH2 induced platelet aggregation at 100 nM preincubated for 5 mins followed by aggregation inducer addition and measured after 5 mins by light transmission aggregometry relative to control; type: functional, cell-free; settings: filed as antagonist, time 10.0 min
T1 sequence (whole entry): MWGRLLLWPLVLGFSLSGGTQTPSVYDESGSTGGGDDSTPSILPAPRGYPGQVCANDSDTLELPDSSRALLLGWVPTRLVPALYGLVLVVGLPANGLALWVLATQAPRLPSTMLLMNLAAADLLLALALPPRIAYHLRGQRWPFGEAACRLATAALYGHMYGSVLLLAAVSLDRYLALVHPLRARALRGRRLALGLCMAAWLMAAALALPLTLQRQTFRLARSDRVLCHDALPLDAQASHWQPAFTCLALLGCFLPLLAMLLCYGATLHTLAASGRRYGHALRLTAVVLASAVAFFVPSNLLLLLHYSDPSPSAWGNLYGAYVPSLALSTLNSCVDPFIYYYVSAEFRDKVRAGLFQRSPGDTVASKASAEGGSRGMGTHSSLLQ

[6] = Toxicity in C57BL/6J mouse assessed as prolongation of bleeding time at 3 to 12 mg/kg, po administered via oral gavage and measured after 2 hrs; type: organism-based; settings: in vivo, dose 3-12 mg/kg

COc1nn2cc(-c3cc4c(OCCN5CCOCC5)cc5c(c4o3)OCCO5)nc2s1
half-life at 1 µM [1]: 33 min | inhibition at 20 µM (Platelet [2]): 78.9%

COc1nn2cc(-c3cc4c(C(F)(F)F)cc5c(c4o3)OCCO5)nc2s1
inhibition at 20 µM (Platelet [2]): 5.75%

COc1nn2cc(-c3cc4c(OCc5ccccc5)cc5c(c4o3)OCCO5)nc2s1
inhibition at 20 µM (Platelet [2]): 7.4%

COc1nn2cc(-c3cc4c(C5CC5)cc5c(c4o3)OCCO5)nc2s1
IC50 (Platelet [3]): 18.7 nM | inhibition at 20 µM (Platelet [2]): 75.6%

COc1nn2cc(-c3cc4c(OCCN5CCS(=O)(=O)CC5)cc5c(c4o3)OCCO5)nc2s1
inhibition at 20 µM (Platelet [2]): -4.63%

COc1nn2cc(-c3cc4c(OCc5nc(N6CCOCC6)sc5C)cc5c(c4o3)OCCO5)nc2s1
half-life at 1 µM [1]: 14.8 min | IC50 (Platelet [3]): 9.2 nM | inhibition at 20 µM (Platelet [2]): 85.2%

COc1nn2cc(-c3cc4cc5c(cc4o3)OCCO5)nc2s1
inhibition at 20 µM (Platelet [2]): 88.4%

COc1ccc2nc(-c3cc4ccc5c(c4o3)OCCO5)cn2n1
inhibition at 20 µM (Platelet [2]): 0%

COc1nn2cc(-c3cc4c(OCc5csc(N6CCSCC6)n5)cc5c(c4o3)OCCO5)nc2s1
IC50 (Platelet [3]): 9.2 nM | inhibition at 20 µM (Platelet [2]): 82.1%

COc1nn2cc(-c3cc4ccc5c(c4o3)OCCCCO5)nc2s1
inhibition at 20 µM (Platelet [2]): 44.8%

COc1nn2cc(-c3cc4c(N5CCOCC5)cc5c(c4o3)OCCO5)nc2s1
inhibition at 20 µM (Platelet [2]): 37.1%

COc1nn2cc(-c3cc4ccc5c(c4o3)C=CC(C)(C)O5)nc2s1
inhibition at 20 µM (Platelet [2]): 2.58%

CSc1nn2cc(-c3cc4ccccc4o3)nc2s1
half-life at 1 µM [1]: 11.1 min | inhibition at 20 µM (Platelet [2]): 81%

FC(F)(F)c1nn2cc(-c3cc4ccc5c(c4o3)OCCO5)nc2s1
inhibition at 20 µM (Platelet [2]): 3.89%

COc1nn2cc(-c3cc4ccc5ccccc5c4o3)nc2s1
inhibition at 20 µM (Platelet [2]): 8.27%

COCCCc1cc2c(c3oc(-c4cn5nc(OC)sc5n4)cc13)OCCO2
inhibition at 20 µM (Platelet [2]): 4.17%

COc1nn2cc(-c3cc4c(Br)cc5c(c4o3)OCCO5)nc2s1
half-life at 1 µM [1]: 59.7 min | IC50 (Platelet [3]): 18.4 nM | inhibition at 20 µM (Platelet [2]): 83.1%

COc1nn2cc(-c3cc4ccc5c(c4o3)CCO5)nc2s1
IC50 (Platelet [3]): 17.8 nM | inhibition at 20 µM (Platelet [2]): 83.7%

COc1nn2cc(-c3cc4c5c(ccc4o3)OCCO5)nc2s1
inhibition at 20 µM (Platelet [2]): 18.4%

COc1nn2cc(-c3cc4c(-c5ccc(C)cc5)cc5c(c4o3)OCCO5)nc2s1
inhibition at 20 µM (Platelet [2]): -0.13%

COc1nn2cc(-c3cc4c(OCc5csc(-c6ccc(C(F)(F)F)cc6)n5)cc5c(c4o3)OCCO5)nc2s1
inhibition at 20 µM (Platelet [2]): 6.57%

CSc1nn2cc(-c3cc4ccc5c(c4o3)OCCOCCO5)nc2s1
inhibition at 20 µM (Platelet [2]): -1.3%

COc1nn2cc(-c3cc4c(F)cc5c(c4o3)OCCO5)nc2s1
half-life at 1 µM [1]: 34.3 min | IC50 (Platelet [3]): 9.1 nM | inhibition at 20 µM (Platelet [2]): 74.8% | bioavailability [4]: 4.9%

[2H]c1cc2c(c3oc(-c4cn5nc(OC)sc5n4)cc13)OCCO2
half-life at 1 µM [1]: 15 min | IC50 (Platelet [3]): 2.8 nM | inhibition at 20 µM (Platelet [2]): 79.9%

COc1nn2cc(-c3cc4c(OCc5csc(-c6ccc(C(=O)N(C)C)cc6)n5)cc5c(c4o3)OCCO5)nc2s1
half-life at 1 µM [1]: 55.8 min | inhibition at 20 µM (Platelet [2]): 80.8%

COc1nn2cc(-c3cc4c(OCC(=O)N5CCN(C(C)=O)CC5)cc5c(c4o3)OCCO5)nc2s1
inhibition at 20 µM (Platelet [2]): 15.1%

COc1nn2cc(-c3cc4ccc5c(c4o3)OCCCO5)nc2s1
half-life at 1 µM [1]: 18.4 min | IC50 (Platelet [3]): 17.1 nM | inhibition at 20 µM (Platelet [2]): 76.8%

CCOC(=O)N[C@@H]1CC[C@@H]2[C@@H](C1)C[C@H]1C(=O)O[C@H](C)[C@H]1[C@H]2/C=C/c1ccc(-c2cccc(F)c2)cn1
Activity [5]: Active

COc1nn2cc(-c3cc4ccc5c(c4o3)CCCC5)nc2s1
inhibition at 20 µM (Platelet [2]): 8.02%

Cc1ccc2nc(-c3cc4ccc5c(c4o3)OCCO5)cn2n1
half-life at 1 µM [1]: 10.6 min | IC50 (Platelet [3]): 10.8 nM | inhibition at 20 µM (Platelet [2]): 85%

COc1nn2cc(-c3cc4c(OCC(=O)N5CCC(F)(F)CC5)cc5c(c4o3)OCCO5)nc2s1
half-life at 1 µM [1]: 16.1 min | inhibition at 20 µM (Platelet [2]): 75.4%

COc1nn2cc(-c3cc4c(Cl)cc5c(c4o3)OCCO5)nc2s1
inhibition at 20 µM (Platelet [2]): 43.2%

COc1nn2cc(-c3cc4ccc5c(c4o3)OCO5)nc2s1
half-life at 1 µM [1]: 16.2 min | IC50 (Platelet [3]): 18.8 nM | inhibition at 20 µM (Platelet [2]): 77.5%

COC(=O)[C@H](c1ccccc1Cl)N1CCc2sccc2C1 [CLOPIDOGREL]
Activity [6]: Toxic

c1cnn2cc(-c3cc4ccc5c(c4o3)OCCO5)nc2n1
inhibition at 20 µM (Platelet [2]): 2.08%

COc1nn2cc(-c3cc4ccc5c(c4o3)CCCO5)nc2s1
inhibition at 20 µM (Platelet [2]): 1.14%
